# Read-outs that look alike come from different tables or passages of the source.
# Legend:
# [1] = Saturation solubility of DTX in the solution-filled reservoir; assay type: physicochemical; conditions: 40 mg/ml BSA solution in PBS inside the device reservoir, aqueous buffer, thermodynamic from solid; solid DTX dissolved by BSA solution in PBS inside the reservoir, 37° C.
# Procedure: Step 8: The device was exposed to a 40 mg/ml bovine serum albumin (BSA, Sigma-Aldrich Canada Ltd., Ontario, Canada) solution in phosphate buffered saline (PBS) and incubated at 37° C. to increase the wet ability of the magnetic PDMS membrane and thus filling of the drug reservoir with water. The hydrophilic aperture walls results in surface-tension driven flow through the aperture and gradual filling of the reservoir with solution.
# [2] = HPLC test of drug released after 8 months inside the device; assay type: physicochemical; conditions: HPLC after 8 months encapsulated inside the device
# Procedure: The released drug from the device was tested with HPLC after 8 months that was encapsulated inside the device.
# PC3 cells = assay: PC3 cell viability (MTS assay); assay type: cell-based; conditions: for cell viability equilibrated: PC3 cells, 2 days incubation
# Procedure: (§1) A prototype device was actuated at the desired number of actuations in 1% BSA solution. The released DTX was extracted in 1 ml DCM, as described previously. This mixture was dried down under nitrogen flow at 40° C. and was then reconstituted in either HUVEC and PC3 cell media to the original volume of 4 ml. Alternatively, fresh solutions of free DTX were prepared in various concentrations (2-250 nM) in acetonitrile, dried down under nitrogen flow at 40° C., and reconstituted in cell media.
# PC3 and HUVEC cells were seeded in 96 well plates in their respective media at a concentration of 1500 cells per well. The cells were allowed to equilibrate for 2 days at which time they became approximately 50% confluent and were ready for drug incubation. Cells were incubated for 2 days at 37° C. with 200 μl of either freshly prepared solutions of DTX at various concentrations or with the drug solution released from the device under various number of device actuations. Cell viability was determined using a CellTiter 96 AQueous Non-Radioactive Cell Proliferation Assay (MTS assay, Promega Corporation, Madison, Wis.) and quantified by reading the absorbance at 492 nm minus the absorbance at 610 nm using a spectrometric plate reader. In both experiments, the values presented are for the averages of six replicas for each condition.
# The biological activity of the DTX released from a device was investigated. This was achieved by incubating cells with the released drug in cell culture media and measuring the drug induced inhibition of proliferation in comparison to the inhibition caused by freshly made drug solutions. The device used for this study had been fabricated and left in BSA solution for two months (with an open aperture) prior to the experiment. The amount of DTX release during this period was estimated to be about 4.5 μg based on measured DTX diffusion rate. It was then actuated under a 255 mT magnetic field for different numbers of actuation cycles. The amounts of released drug were then experimentally interpolated from “number of actuations” to “drug concentrations”, using FIG. 4-a. […]
# HUVECs = assay: HUVEC viability (MTS assay); assay type: cell-based; conditions: 2 days incubation
# Procedure: as §1
# PC3 and HUVEC cells were seeded in 96 well plates in their respective media at a concentration of 1500 cells per well. The cells were allowed to equilibrate for 2 days at which time they became approximately 50% confluent and were ready for drug incubation. […] Cell viability was determined using a CellTiter 96 AQueous Non-Radioactive Cell Proliferation Assay (MTS assay, Promega Corporation, Madison, Wis.) and quantified by reading the absorbance at 492 nm minus the absorbance at 610 nm using a spectrometric plate reader. […]
# The biological activity of the DTX released from a device was investigated. […] The amount of DTX release during this period was estimated to be about 4.5 μg based on measured DTX diffusion rate. […]
# [3] = cited from earlier work
# [4] = drug released from the device (255 mT, device kept two months in BSA solution)
solubility [1],drug remained intact [2],SMILES,cell viability equilibrated (PC3 cells; [4]),cell viability equilibrated (PC3 cells; fresh free drug),"stability of DTX inside the PDMS MEMS device (PC3 cells; after two months, judged by antiproliferative effect)",cell viability equilibrated (HUVECs; [4]),cell viability equilibrated (HUVECs; fresh free drug),solubility [3]
~5 µg/mL,over 95%,"CC(=O)O[C@@]12CO[C@@H]1C[C@H](O)[C@@]1(C)C(=O)[C@H](O)C3=C(C)[C@@H](OC(=O)[C@H](O)[C@@H](NC(=O)OC(C)(C)C)c4ccccc4)C[C@@](O)([C@@H](OC(=O)c4ccccc4)[C@H]21)C3(C)C [DTX, docetaxel]",about 34%,about 34%,does not degrade,about 24%,about 24%,
,,CC(C)OC(=O)CCC/C=C\C[C@@H]1[C@@H](CC[C@@H](O)CCc2ccccc2)[C@H](O)C[C@@H]1O [latanoprost],,,,,,50000 µg/mL
,,CC(C)(C)NC[C@H](O)COc1nsnc1N1CCOCC1 [timolol],,,,,,2500 µg/mL

# — patent US9289584B2, “Remotely controlled drug delivery systems” (THE UNIVERSITY OF BRITISH COLUMBIA, priority 2010, dated 2016)
